We go through six compounds from patent US12582721B2, “Molybdenum-based feed supplement for bees” (UNIVERSITE DE VERSAILLES—SAINT-QUENTIN-EN-YVELINES, priority 2020, dated 2026).

Data set [1] concerns healthy Madin-Darby canine kidney epithelial cells of the MDCK line. In words: Resazurin cell proliferation test, MDCK cells. It counts as cell-based. The source says:
(§1) For cell culture, human cervical epithelial cells of the HeLa line, human epithelial pancreatic adenocarcinoma cells of the BxPC-3 line and healthy Madin-Darby canine kidney epithelial cells of the MDCK line were used in this study. The Resazurin cell proliferation test was applied according to the literature (S. Anoopkumar-Dukie, J. B. Carey, T. Conere, E. O'Sullivan, F. N. van Pelt, A. Allshire, Br J Radiol 2005, 78, 945, DOI: 10.1259/bjr/54004230). As an indicator of the effectiveness of the experimental compounds on cell proliferation, the median inhibitory concentration (IC50) was used. The lower the IC50 value, the higher the activity (in this case, the cytotoxicity).
(§2) Five formula I complexes were tested in this study in comparison to two reference anti-cancer compounds (“Cisplatin” and Doxorubicin complex).

For data set [2], the system named is human epithelial pancreatic adenocarcinoma cells of the BxPC-3 line. The experiment in a line: Resazurin cell proliferation test, BxPC-3 cells. It counts as cell-based.
Description: as §1, §2

The test system of data set [3] is human cervical epithelial cells of the HeLa line. In words: Resazurin cell proliferation test, HeLa cells. Format: cell-based.
Description: as §1, §2

Data set [4] can be described thus: Chemical stability of the complexes (solid, water, physiological medium, sugar syrup; 1H-NMR or UV-vis). Format: physicochemical. The following applies: for Stability in a physiological medium or in a sugar syrup: physiological medium or sugar syrup with 50% by weight, very low concentrations; for Stability in water: 5×10^−3-2×10^−7 M concentration range (K—Mo2O2S2-LCys: down to micromolar concentrations). An excerpt:
In solid form, the compounds obtained are perfectly stable in air and can be kept without any special conditions for years without any alteration.
The stabilities of the complexes in solution are studied by different techniques (^1H-NMR or UV-vis spectroscopy), the objective being to study their behavior in different media in terms of stability.

The conditions of data set [5]: cited from earlier work.
Setting [6] is: healthy cells, IC50 equal to and greater than 100 μM considered no activity.
Setting [7] is: pancreatic cancer cells, IC50 equal to and greater than 100 μM considered no activity.
[8] abbreviates: cervical cancer cells, IC50 equal to and greater than 100 μM considered no activity.

Molecules are shown by their SMILES. Some results are limits rather than exact numbers.

As for `N.N.[Cl][Pt][Cl]` [Cisplatin, reference compound], the 50% inhibitory concentration (IC50) in data set [1] (setting [6]) stood at 30.9 ± 1.1 µM; in data set [2] (setting [7]) it was 11.2 ± 1.2 µM; in data set [3] (setting [8]) it was 3.99 ± 0.33 µM.
`COc1cccc2c1C(=O)c1c(O)c3c(c(O)c1C2=O)C[C@@](O)(C(=O)CO)C[C@@H]3O[C@H]1C[C@H](N)[C@H](O)[C@H](C)O1` [Doxorubicin, reference compound]: the IC50 in data set [1] (Canis lupus familiaris, MDCK) is 1.48 ± 3.1 µM; in data set [2] (Homo sapiens, BXPC-3), 3.99 ± 7.9 µM; in data set [3] (Homo sapiens, HeLa) it was 1.31 µM.
With `N[C@@H](C[S-])C(=O)[O-].N[C@@H](C[S-])C(=O)[O-].[K+].[K+].[O]=[Mo+]12[S][Mo+]1(=[O])[S]2` [K—Mo2O2S2-Cys, K2[Mo2O2S2 (LCys)2]·xH2O], the “IC50, MDCK” value in data set [1] (setting [6]) is on record as “Inactive”. The “IC50, BxPc-3” value in data set [2] (setting [7]) is given as “Inactive”. For the same compound, in data set [3] (setting [8]), the “IC50, HeLa” value is “Inactive”. For the same compound, in data set [4], the “Stability in a physiological medium or in a sugar syrup” value is given as “good stability” and the Stability in water result is reported as “without any breakdown”.
With `O=C([O-])CN(CCN(CC(=O)[O-])CC(=O)[O-])CC(=O)[O-].[O]=[Mo+]12[S][Mo+]1(=[O])[S]2.c1ccc([P+](c2ccccc2)(c2ccccc2)c2ccccc2)cc1.c1ccc([P+](c2ccccc2)(c2ccccc2)c2ccccc2)cc1` [PPh4—Mo2O2S2-EDTA], the IC50 was no less than 100 µM in data set [1] (setting [6]), 59.8 ± 26.4 µM in data set [2] (setting [7]) and no less than 100 µM in data set [3] (setting [8]).
`O=C([O-])CN(CCN(CC(=O)[O-])CC(=O)[O-])CC(=O)[O-].[O]=[Mo+]12[S][Mo+]1(=[O])[S]2` [[Mo2O2S2-EDTA]^2−]: in data set [4], the “Stability in a physiological medium or in a sugar syrup” value is listed as “good stability” and the Stability in water result is on record as “no sign of decomposition”.
In the case of `[Li]` [lithium], the “Serum lithium concentration at which toxicity appears” value in data set [5] was “greater than 2 mmol/l”.
